# Test results from EP4610348A1, “HEPATOLENTICULAR DEGENERATION CELL, PREPARATION METHOD THEREFOR, AND EVALUATION METHOD THEREFOR” (GUANGXIU-GAOXIN LIFE SCIENCES CO., LTD. HUNAN, priority 2022, dated 2024).
# Key:
# Assay type in all cases: cell-based, human
# [1] = tested on: ATP7B gene in hepatolenticular degeneration hepatocytes; assay: Detection of ATP7B gene expression (qPCR); conditions: after incubation with 100 µM to 300 µM copper sulfate or copper chloride
# Protocol: (§1) 3.1 Detection of ATP7B gene expression: Cells on the last day of induction were collected, and ATP7B gene expression levels in the hepatocytes before and after incubation with 100 µM to 300 µM of copper sulfate or copper chloride were detected by qPCR method, with GAPDH gene as the internal reference. Primers were used for validation. The qPCR method was performed as follows: 95°C for 5 minutes; 45 cycles (94°C for 40 seconds, 54°C to 58°C for 10 seconds, 72°C for 10 seconds); and 72°C extension for 5 minutes.
# [2] = tested on: ATP7B gene in normal hepatocytes; assay: Detection of ATP7B gene expression (qPCR); conditions: after incubation with 100 µM to 300 µM copper sulfate or copper chloride
# Protocol: as §1
# [3] = tested on: ATP7B protein in hepatolenticular degeneration hepatocyte; assay: Detection of ATP7B protein expression (Western blotting); conditions: after incubation with 100 µM to 300 µM copper sulfate or copper chloride
# Protocol: (§2) 3.2 Detection of ATP7B protein expression: Cells on the last day of induction were collected, and ATP7B protein expression levels in the hepatocytes before and after incubation with 100 µM to 300 µM of copper sulfate or copper chloride were detected by Western blotting method, with GAPDH protein as the internal reference. The induced cells were digested and collected in a 1.5 mL EP tube. An appropriate amount of protein lysis buffer was added depending on the cell solution volume (adding 200 µL RIPA lysis buffer for 1×10^6 cells). The cell solution was pipetted up and down to mix, and the cells were lysed in an ice bath with an ultrasonic cell disruptor for 15 minutes, then centrifuged at 13000 ×g and 4°C for 10 minutes. The supernatant was transferred to a new EP tube, and the protein concentration was detected using a BCA protein quantification kit. Polyacrylamide gel for SDS-PAGE was prepared, including preparing an 8% separating gel and a stacking gel. After the stacking gel was solidified, the comb was carefully pulled out. After a 40 µg sample and a 5 µL protein marker were loaded, the electrophoresis started at a 110 V constant voltage. After the Loading Buffer ran out of the separating gel, the electrophoresis stopped. […]
# [4] = tested on: ATP7B protein in normal hepatocyte; assay: as above; conditions: after incubation with 100 µM to 300 µM copper sulfate or copper chloride
# Protocol: as §2
# [5] = tested on: hepatolenticular degeneration hepatocytes; assay: Effect of copper ion accumulation on cell viability (CCK-8); conditions: 48 hours
# Protocol: (§3) 3.4 Effect of copper ion accumulation on cell viability: The induced cells were digested and evenly inoculated in a 96-well plate, with about 3×10^4 cells per well, and edge wells were filled with sterile PBS. After the cells were adhered to the wall, a copper sulfate or copper chloride solution in different concentrations (0 mM, 0.5 mM, 1 mM, and 1.5 mM) were added, and 6 replicate wells were set in each group. The wells without cells were set as blank wells. After incubation at 37°C for 48 hours (fresh culture medium was replaced every 22 hours to 26 hours), the original culture medium was discarded, and the cells were washed three times with DPBS. Fresh culture medium (100 µL per well) was added, and a 10 µL CCK-8 reaction solution was added to each well, followed by incubating at 37 °C in the dark for 4 hours. After the incubation, the absorbance at 450 nm was detected using a microplate reader.
# normal hepatocytes = assay: as above; conditions: 48 hours
# Protocol: as §3
compound,measurement,setting,value
[Cu+2] [copper ions],expression level of the ATP7B gene,[1],not upregulated significantly
same,expression level of the ATP7B gene,[2],significantly upregulated
same,expression level of the ATP7B protein,[3],still expresses a low level of the ATP7B protein
same,expression level of the ATP7B protein,[4],significantly increased
same,cell viability,[5]; 0.5 mM copper ions,93.25%
same,cell viability,[5]; 1 mM copper ions,67.49%
same,cell viability,[5]; 1.5 mM copper ions,34.8%
same,cell viability,normal hepatocytes; 0.5 mM copper ions,95.33%
same,cell viability,normal hepatocytes; 1 mM copper ions,83.78%
same,cell viability,normal hepatocytes; 1.5 mM copper ions,73.53%
